Reference: US11230535B2, “CFTR regulators and methods of use thereof” (THE REGENTS OF THE UNIVERSITY OF CALIFORNIA, priority 2015, dated 2022)
“Also recorded” adds a separate entry of the source. Like-named read-outs stand apart in the source and are kept apart here.

Assays:
human wild-type CFTR = human wild-type CFTR (Homo sapiens, UniProt P13569); test: Cell-based plate reader (YFP iodide influx) assay of CFTR function; parameters: expressed in transfected cells; host or cells: Fischer rat thyroid (FRT) cells stably co-expressing YFP-H148Q; conditions: for % Activation: FRT cells with YFP and wildtype CFTR, 125 nM forskolin
Experimental: The initiate rate of I^− influx was computed by determined using exponential regression. All compound plates contained negative controls (DMSO vehicle) and positive controls (20 μM forskolin).
High-throughput screening. […] The initiate rate of I^− influx was computed by determined using exponential regression. All compound plates contained negative controls (DMSO vehicle) and positive controls ([…] forskolin).
Platereader assays of chloride channel function. CFTR activity was assayed as described. […] I^− influx was measured in a plate reader with initial baseline read for 2 s and then for 12 s after rapid addition of an I^−-containing solution. TMEM16A activity was assayed similarly as described using FRT cells co-expressing YFP and TMEM16A. Activity of non-TMEM16A CaCC was assayed as described in HT-29 cells expressing YFP. In each assay initial rates of I^− influx were computed as a linear measure of channel function.

rat liver microsomes = test: In vitro metabolic stability in rat liver microsomes; type: in vitro ADME; conditions: NADPH
Experimental: In vitro metabolic stability. Compounds (each 5 μM) were incubated for specified times at 37° C. with rat liver microsomes (1 mg/ml; Sigma-Aldrich) in potassium phosphate buffer containing 1 mM NADPH, as described^14.

mice = test: Tear secretion / tear volume in mice (phenol red thread); type: in vivo, mouse
Experimental: (§1) To measure unstimulated tear production, phenol red threads (Zone-Quick, Oasis Medical, Glendora, Calif., USA) were placed for 10 s in the lateral canthi of isofluorane-anesthetized mice using jewelers' forceps. Tear volume was measured as the length of thread wetting, as visualized under a dissecting microscope. Serial measurements were used to evaluate compound pharmacodynamics after application of 2-μL drops of compound formulations (50-100 μM compound in PBS containing 0.5% polysorbate and 0.5% DMSO) comparing to vehicle.
as §1, with “Tear secretion. To” for “To”, “2-[…]L” for “2-μL”
Tear volume. Tear volume was measured using phenol red threads (Zone-Quick, Oasis Medical, Glendora, Calif.) as described. Threads were placed for 10 s in the lateral canthi of isofluorane-anesthetized mice using jewelers' forceps. Tear volume was determined from the length of thread wetting as visualized under a dissecting microscope. Serial measurements were done to evaluate compound pharmacodynamics after topical application of a single, 2.5-μL drop of ophthalmic formulation containing 0-100 μM of 1 or 12 in Ringer's solution with 0.3% carboxymethylcellulose (high viscosity, VWR, Radnor, Pa.), 0.015% benzalkonium chloride preservative, and 1% DMSO. Both eyes in each mouse received the same treatment to control for potential contralateral effects of a given treatment.

loperamide-treated mice = test: Loperamide-induced mouse model of constipation (3-h stool weight, pellet number, water content); conditions: wildtype loperamide-treated mice
[1] = commercial analogs, read-out: EC50 (full-dose response assay, compounds >80% activation)

Chain of human wild-type CFTR (P13569 whole entry): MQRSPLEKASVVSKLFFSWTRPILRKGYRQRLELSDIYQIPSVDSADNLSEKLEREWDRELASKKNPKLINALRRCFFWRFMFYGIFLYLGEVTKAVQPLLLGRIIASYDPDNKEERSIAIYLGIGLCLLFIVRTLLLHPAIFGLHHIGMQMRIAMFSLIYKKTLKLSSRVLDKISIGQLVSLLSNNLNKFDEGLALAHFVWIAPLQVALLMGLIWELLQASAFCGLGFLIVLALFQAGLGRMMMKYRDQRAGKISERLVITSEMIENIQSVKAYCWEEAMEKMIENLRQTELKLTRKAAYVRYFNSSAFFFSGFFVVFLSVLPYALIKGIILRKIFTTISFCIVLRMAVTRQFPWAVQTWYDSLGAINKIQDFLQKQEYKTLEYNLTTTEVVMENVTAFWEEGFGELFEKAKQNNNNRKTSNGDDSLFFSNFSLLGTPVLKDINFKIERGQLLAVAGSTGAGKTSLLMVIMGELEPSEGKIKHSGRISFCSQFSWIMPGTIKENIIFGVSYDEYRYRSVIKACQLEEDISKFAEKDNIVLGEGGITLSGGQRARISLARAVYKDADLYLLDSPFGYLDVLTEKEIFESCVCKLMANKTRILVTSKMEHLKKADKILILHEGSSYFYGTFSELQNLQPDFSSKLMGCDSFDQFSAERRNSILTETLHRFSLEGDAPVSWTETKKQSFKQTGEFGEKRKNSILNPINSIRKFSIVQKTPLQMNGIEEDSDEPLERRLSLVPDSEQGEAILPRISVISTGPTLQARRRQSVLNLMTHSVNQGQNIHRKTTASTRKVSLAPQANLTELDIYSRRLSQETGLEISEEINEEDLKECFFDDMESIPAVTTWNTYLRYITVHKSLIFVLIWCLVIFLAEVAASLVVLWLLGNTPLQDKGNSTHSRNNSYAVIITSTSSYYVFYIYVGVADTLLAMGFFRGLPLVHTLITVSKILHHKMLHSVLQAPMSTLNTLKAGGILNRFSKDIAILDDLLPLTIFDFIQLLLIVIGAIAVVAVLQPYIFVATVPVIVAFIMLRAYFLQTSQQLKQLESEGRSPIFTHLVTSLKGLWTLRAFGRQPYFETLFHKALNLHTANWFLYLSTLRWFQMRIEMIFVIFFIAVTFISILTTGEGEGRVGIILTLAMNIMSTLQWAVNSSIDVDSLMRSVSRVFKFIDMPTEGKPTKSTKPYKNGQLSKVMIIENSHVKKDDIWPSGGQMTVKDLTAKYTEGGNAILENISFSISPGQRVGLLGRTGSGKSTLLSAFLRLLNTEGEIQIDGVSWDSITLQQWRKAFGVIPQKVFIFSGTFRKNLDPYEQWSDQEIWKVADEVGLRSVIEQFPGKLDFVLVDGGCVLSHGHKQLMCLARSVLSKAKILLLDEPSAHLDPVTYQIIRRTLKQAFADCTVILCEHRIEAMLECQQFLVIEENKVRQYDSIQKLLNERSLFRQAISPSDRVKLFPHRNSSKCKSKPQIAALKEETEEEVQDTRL

| Compound | % Activation (human wild-type CFTR; commercial analogs) [%] | other results |
| --- | --- | --- |
| CCN(CC)c1nc(Nc2ccc3ncoc3c2)nc(OC(C(F)(F)F)C(F)(F)F)n1 [6j, N′-(1,3-Benzoxazol-6-yl)-N,N-diethyl-6-[(1,1,1,3,3,3-hexafluoropropan-2-yl)oxy]-1,3,5-triazine-2,4-diamine] | – | EC50 (human wild-type CFTR; bicyclic aniline analogs, read-out: EC50): 150 nM; original compound remaining at 60 min (rat liver microsomes; 5 μM, rat hepatic microsomes): ~60%; metabolic stability in hepatic microsomes, in words (rat liver microsomes): metabolized slowly; also recorded: substantially greater in vitro metabolic stability than 1 or 12 |
| CC(C)Cn1c(=O)n(C)c(=O)c2[nH]cnc21 [IBMX, 3-isobutyl-1-methylxanthine, reference compound] | – | basal tear secretion at 30 min (mice; single topical dose, 30 min): substantially increased; effect on tear secretion after 2 hours (mice; single topical dose, after 2 hours): undetectable |
| C=CCNc1nc(Nc2ccc(I)cc2)nc(OCC)n1 [K044] | 55 | – |
| CCOc1nc(NCCN2CCOCC2)nc(Nc2ccc(I)cc2)n1 [K045] | 15 | – |
| CCOc1nc(Nc2ccc(I)cc2)nc(NC2CCCCC2)n1 [K046] | 16 | – |
| COc1nc(NCCO)nc(Nc2ccc([N+](=O)[O-])cc2)n1 [K047] | 17 | – |
| C=CCNc1nc(Nc2ccc([N+](=O)[O-])cc2)nc(OC)n1 [K048] | 46 | – |
| CCOc1nc(NCCO)nc(Nc2ccc([N+](=O)[O-])cc2)n1 [K049] | 28 | – |
| C=CCNc1nc(Nc2ccc([N+](=O)[O-])cc2)nc(OCC)n1 [K050] | 66 | – |
| CCOc1nc(Nc2ccc([N+](=O)[O-])cc2)nc(NC2CCCCC2)n1 [K051] | 45 | – |
| C=CCNc1nc(Nc2ccc(I)cc2C)nc(OCC)n1 [K053] | 24 | – |
| CCOc1nc(Nc2ccc(I)cc2C)nc(NC2CCCCC2)n1 [K054] | 14 | – |
| CN(C)c1nc(OC(C(F)(F)F)C(F)(F)F)nc(N(c2ccccc2)c2ccccc2)n1 [K055] | 42 | – |
| CCC(C)Nc1nc(Nc2ccc([N+](=O)[O-])cc2)nc(OC(C(F)(F)F)C(F)(F)F)n1 (stereo not shown) [K056] | 38 | – |
| FC(F)(F)COc1nc(N2CCCCC2)nc(N(c2ccccc2)c2ccccc2)n1 [K057] | 28 | – |
| C=CCNc1nc(OC(C(F)(F)F)C(F)(F)F)nc(N(c2ccccc2)c2ccccc2)n1 [K058] | 37 | – |
| C=CCNc1nc(Nc2cccc([N+](=O)[O-])c2)nc(OC(C(F)(F)F)C(F)(F)F)n1 [K059] | 90 | EC50 (human wild-type CFTR; [1]): 750 nM |
| COc1ccc(Nc2nc(NC3CCCCC3)nc(OC(C(F)(F)F)C(F)(F)F)n2)cc1 [K060] | 38 | – |
| Cc1ccc(Nc2nc(OC(C(F)(F)F)C(F)(F)F)nc(N3CCCCC3)n2)cc1 [K061] | 31 | – |
| Fc1ccc(Nc2nc(OC(C(F)(F)F)C(F)(F)F)nc(N3CCCCC3)n2)cc1 [K062] | 49 | – |
| FC(F)(F)C(Oc1nc(N2CCCCCC2)nc(N(c2ccccc2)c2ccccc2)n1)C(F)(F)F [K063] | 41 | – |
| CC(=O)N1CCN(c2nc(Nc3ccccc3C(=O)c3ccccc3)nc(OC(C(F)(F)F)C(F)(F)F)n2)CC1 [K064] | 40 | – |
| FC(F)(F)C(Oc1nc(Nc2ccc(Cl)cc2)nc(N2CCOCC2)n1)C(F)(F)F [K065] | 38 | – |
| CCOc1nc(Nc2ccc(-c3nc4ccccc4o3)cc2)nc(N2CCOCC2)n1 [K066] | 87 | EC50 (human wild-type CFTR; [1]): 2900 nM |
| C=CCNc1nc(Nc2ccc(-c3nc4ccccc4o3)cc2)nc(OCC)n1 [K067] | 49 | – |
| CCOc1nc(NCCO)nc(Nc2ccc(-c3nc4ccccc4o3)cc2)n1 [K068] | 84 | EC50 (human wild-type CFTR; [1]): 4100 nM |

| Compound | % Activation (human wild-type CFTR; commercial analogs) [%] | other results |
| --- | --- | --- |
| FC(F)(F)COc1nc(Nc2ccc(OC(F)(F)Cl)cc2)nc(N2CCOCC2)n1 [K069] | 37 | – |
| FC(F)(F)COc1nc(Nc2ccc(OC(F)(F)Cl)cc2)nc(N2CCCCC2)n1 [K070] | 28 | – |
| CN1CCN(c2nc(Nc3ccc(OC(F)(F)Cl)cc3)nc(OCC(F)(F)F)n2)CC1 [K071] | 25 | – |
| FC(F)(F)COc1nc(Nc2ccc(OC(F)(F)F)cc2)nc(N2CCOCC2)n1 [K072] | 31 | – |
| FC(F)(F)COc1nc(Nc2ccc(OC(F)(F)F)cc2)nc(N2CCCCC2)n1 [K073] | 19 | – |
| CN1CCN(c2nc(Nc3ccc(OC(F)(F)F)cc3)nc(OCC(F)(F)F)n2)CC1 [K074] | 25 | – |
| CN(C)c1nc(Nc2ccc(OC(F)(F)Cl)cc2)nc(OCC(F)(F)F)n1 [K075] | 32 | – |
| C=CCNc1nc(Nc2ccc(OC(F)(F)Cl)cc2)nc(OCC(F)(F)F)n1 [K076] | 46 | – |
| C=CCNc1nc(Nc2ccc(OC(F)(F)Cl)cc2)nc(OCC(F)(F)F)n1 [K077] | 29 | – |
| OCCNc1nc(Nc2ccc(OC(F)(F)Cl)cc2)nc(OCC(F)(F)F)n1 [K078] | 28 | – |
| FC(F)(F)COc1nc(Nc2ccc(OC(F)(F)F)cc2)nc(NC2CC2)n1 [K079] | 40 | – |
| FC(F)(F)COc1nc(NCc2ccccc2)nc(Nc2ccc(OC(F)(F)Cl)cc2)n1 [K080] | 26 | – |
| FC(F)(F)COc1nc(Nc2ccc(OC(F)(F)Cl)cc2)nc(N2CCN(c3cccc(Cl)c3)CC2)n1 [K081] | 24 | – |
| FC(F)(F)COc1nc(NCc2ccccc2)nc(Nc2ccc(OC(F)(F)F)cc2)n1 [K082] | 28 | – |
| FC(F)(F)COc1nc(Nc2ccc(OC(F)(F)Cl)cc2)nc(NC2CC2)n1 [K083] | 54 | – |
| CCC(C)Nc1nc(Nc2ccc(OC(F)(F)Cl)cc2)nc(OCC(F)(F)F)n1 (stereo not shown) [K084] | 22 | – |
| CCCCNc1nc(Nc2ccc(OC(F)(F)Cl)cc2)nc(OCC(F)(F)F)n1 [K085] | 25 | – |
| CCC(C)Nc1nc(Nc2ccc(OC(F)(F)F)cc2)nc(OCC(F)(F)F)n1 (stereo not shown) [K086] | 20 | – |
| CN(C)c1nc(Nc2ccc(Cl)cc2)nc(OCCNC(=O)c2ccc(Cl)cc2)n1 [K087] | 47 | – |
| CCCCCCNc1nc(Nc2ccc([N+](=O)[O-])cc2)nc(OCC)n1 [K088] | 33 | – |
| CCOc1nc(NCCN2CCOCC2)nc(Nc2ccc([N+](=O)[O-])cc2)n1 [K090] | 52 | – |
| Cc1cc(I)ccc1Nc1nc(NCCN2CCOCC2)nc(OCC(F)(F)F)n1 [K091] | 43 | – |
| CNc1nc(Nc2ccccc2)nc(OC(C(F)(F)F)C(F)(F)F)n1 [compound 11] | – | EC50 (human wild-type CFTR; N-methyl-N′-phenyl-1,3,5-triazine diamine analogs, read-out: EC50): 120 nM |
| Cn1c(=O)c(-c2cc([N+](=O)[O-])ccc2N)nc2ccccc21 [inactive chemical analog of CFTRact-J027, reference compound] | – | effect of inactive analog on stool parameters (loperamide-treated mice): nor was an inactive chemical analog of CFTRact-J027 effective |
| cholera toxin | – | basal tear secretion at 30 min (mice; mouse, in vivo): substantially increased; effect on tear secretion after 2 hours (mice; mouse, in vivo): undetectable |
